Reference: patent US20040067531A1, “Methods of modulating protein tyrosine kinase function with substituted indolinone compounds” (SUGEN, INC., priority 1997, published 2004)
Like-named read-outs stand apart in the source and are kept apart here.

Legend:
[1] = tested on: HUV-EC-C cells; aFGF (ECGF); assay: HUVEC-aFGF 3H-thymidine incorporation assay; assay type: cell-based, human
Method: The following protocol is used to measure a compound's activity against VEGF and aFGF, all of which are expressed by HUVEC cells.
Repeat the wash two more times with D-PBS, resuspend the cells in about 1 mL assay medium/15 cm^2 of tissue culture flask.
Add cells to 96-well flat-bottom plates at 100 μL/well or 0.8-1.0×10^4 cells/well; incubate ˜24h at 37° C., 5% CO^2.
Use the same assay medium as mentioned in day 0, step 2 above. Titrations are made by adding 90 μL/well of drug at 200 μM (4× the final well concentration) to the top well of a particular plate column. Since the stock drug concentration is usually 20 mM in DMSO, the 200 μM drug concentration contains 2% DMSO.
Therefore, diluent made up to 2% DMSO in assay medium (F12K+0.5% fetal bovine serum) is used as diluent for the drug titrations in order to dilute the drug but keep the DMSO concentration constant. Add this diluent to the remaining wells in the column at 60 μL/well. Take 60 μL from the 120 μL of 200 μM drug dilution in the top well of the column and mix with the 60 μL in the second well of the column. Take 60 μL from this well and mix with the 60 μL in the third well of the column, and so on until two-fold titrations are completed. When the next-to-the-last well is mixed, take 60 μL of the 120 μL in this well and discard it. Leave the last well with 60 μL of DMSO/media diluent as a non-drug-containing control. Make 9 columns of titrated drug, enough for triplicate wells each for 1) VEGF (obtained from Pepro Tech Inc., catalogue no. […] ECGF comes as a preparation with sodium heparin.
Transfer 50 μL/well of the drug dilutions to the 96-well assay plates containing the 0.8-1.0×10^4 cells/100 μL/well of the HUV-EC-C cells from day 0. and incubate ˜2 h at 37° C., 5% CO2.
In triplicate, add 50 μL/well of 80 μg/mL VEGF, 20 ng/mL ECGF, or media control to each drug condition. As with the drugs, the growth factor concentrations are 4× the desired final concentration. Use the assay media from day 0 step 2 to make the concentrations of growth factors.
Freeze plates overnight at 20° C.

PDGF receptor = PDGF receptor (Homo sapiens, UniProt P09619); assay: ELISA assay measuring the kinase activity of the PDGF receptor in U1242 cells; assay type: cell-based; conditions: ligand stimulation, phosphotyrosine ELISA
Sequence of PDGF receptor (P09619 33-1106): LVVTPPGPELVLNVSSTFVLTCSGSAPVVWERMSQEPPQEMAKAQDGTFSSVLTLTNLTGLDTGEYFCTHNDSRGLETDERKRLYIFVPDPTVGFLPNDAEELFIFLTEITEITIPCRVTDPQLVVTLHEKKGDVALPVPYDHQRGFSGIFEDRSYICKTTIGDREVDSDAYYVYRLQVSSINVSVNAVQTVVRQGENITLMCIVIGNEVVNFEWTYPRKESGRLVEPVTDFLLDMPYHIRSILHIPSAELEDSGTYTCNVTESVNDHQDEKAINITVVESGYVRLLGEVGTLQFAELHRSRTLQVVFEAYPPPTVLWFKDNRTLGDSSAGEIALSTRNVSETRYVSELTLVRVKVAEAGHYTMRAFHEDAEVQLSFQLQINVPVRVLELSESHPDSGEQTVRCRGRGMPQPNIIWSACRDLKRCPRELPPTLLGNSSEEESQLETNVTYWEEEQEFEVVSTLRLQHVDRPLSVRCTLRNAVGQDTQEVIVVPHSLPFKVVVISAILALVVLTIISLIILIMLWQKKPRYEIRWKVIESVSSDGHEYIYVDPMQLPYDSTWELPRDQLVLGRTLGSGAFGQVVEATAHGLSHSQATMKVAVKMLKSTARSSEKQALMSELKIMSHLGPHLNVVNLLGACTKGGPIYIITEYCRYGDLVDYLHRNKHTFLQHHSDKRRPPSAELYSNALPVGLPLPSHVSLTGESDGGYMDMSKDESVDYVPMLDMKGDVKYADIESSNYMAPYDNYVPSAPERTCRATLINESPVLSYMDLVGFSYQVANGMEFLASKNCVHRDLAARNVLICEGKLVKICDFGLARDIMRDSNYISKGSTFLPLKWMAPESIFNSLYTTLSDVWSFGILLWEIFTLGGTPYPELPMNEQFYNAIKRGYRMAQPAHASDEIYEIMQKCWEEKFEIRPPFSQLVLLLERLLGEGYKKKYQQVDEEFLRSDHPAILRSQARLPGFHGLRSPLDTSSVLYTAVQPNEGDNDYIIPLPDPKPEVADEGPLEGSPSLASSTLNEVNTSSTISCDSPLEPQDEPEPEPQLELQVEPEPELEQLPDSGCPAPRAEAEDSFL
Method: All cell culture media, glutanine, and fetal bovine serum were purchased from Gibco Life Technologies (Grand Island, N.Y.) unless otherwise specified. All cells were grown in a humid atmosphere of 90-95% air and 5-10% CO2 at 37° C. All cell lines were routinely subcultured twice a week and were negative for mycoplasma as determined by the Mycotect method (Gibco).
For ELISA assays, cells (U1242, obtained from Joseph Schlessinger, NYU) were grown to 80-90% confluency in growth medium (MEM with 10% FBS, NEAA, 1 mM NaPyr and 2 mM GLN) and seeded in 96-well tissue culture plates in 0.5% serum at 25,000 to 30,000 cells per well. After overnight incubation in 0.5% serum-containing medium cells were changed to serum-free medium and treated with test compound for 2 hr in a 5% CO21 37° C. incubator. […] Absorbance at 410 nm with a reference wavelength of 630 nm was recorded about 15 to 30 min after ABTS addition.
(§1) The IC50 values were measured for several of the compounds of the invention.

[2] = biological target: Myc-GyrB-FGFR fusion protein (Homo sapiens, UniProt P11362); assay: ELISA assay measuring the kinase activity of the FGF receptor (Myc-GyrB-FGFR from COS/FGFR cell lysate); assay type: biochemical; conditions: 7 μM ATP
Sequence of Myc-GyrB-FGFR fusion protein (P11362 398-822): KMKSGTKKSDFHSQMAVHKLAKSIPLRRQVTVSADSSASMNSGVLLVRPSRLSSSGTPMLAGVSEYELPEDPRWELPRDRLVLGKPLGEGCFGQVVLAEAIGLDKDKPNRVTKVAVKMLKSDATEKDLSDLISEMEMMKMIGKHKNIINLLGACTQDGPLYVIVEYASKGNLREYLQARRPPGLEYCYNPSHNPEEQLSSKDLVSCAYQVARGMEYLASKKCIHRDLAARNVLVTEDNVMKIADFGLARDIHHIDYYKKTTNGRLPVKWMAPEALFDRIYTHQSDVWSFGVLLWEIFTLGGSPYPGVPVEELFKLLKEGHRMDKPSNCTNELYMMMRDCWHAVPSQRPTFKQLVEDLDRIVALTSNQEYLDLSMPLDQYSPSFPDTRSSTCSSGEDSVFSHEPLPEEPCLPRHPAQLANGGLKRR
Method: The following protocol describes the reagents and procedures used to analyze protein-tyrosine kinase activity of the Myc-GyrB-FGFR fusion protein.
Coat Corning 96 well ELISA plates with 1.0 μg/well of Rabbit αGyrB antibody in PBS for a total well volume of 100 μL. Store overnight at 4° C.
Remove unbound Rabbit antibody by inverting plate to remove liquid. Pat plate on a paper towel to remove excess liquid and bubbles
Add 100 μL of Blocking Buffer (TBB) to each well. Incubate while shaking on a microliter plate shaker at room temperature for 30 min.
Wash 4× with TBST. Pat plate on a paper towel to remove excess liquid and bubbles.
Add 15 μg COS/FGFR cell lysate Myc-GyrB-FGFR sources per well in HNTG for a final volume of 100 μL per well. Incubate while shaking on a micro-liter plate shaker at room temperature for 2 hours.
Wash 4× with TBST as described in step 4.
Add 80 μL of 1× kinase buffer per well.
Dilute compunds/extracts 1:10 (or as stated otherwise) in 1× kinase buffer +1% DMSO in a polypropylene 96 well plate.
At this point diluted Compounds/Extracts are added to the ELISA plate. […]

EGFR protein = biological target: T1, EGFR protein (Homo sapiens, UniProt P00533); assay: ELISA assay measuring the kinase activity of the EGF receptor (EGFR captured from A431 cell lysate); assay type: biochemical
T1 construct: A431 cell lysate; endogenous in cells; host or cells: A431
T1 sequence (P00533 25-1210): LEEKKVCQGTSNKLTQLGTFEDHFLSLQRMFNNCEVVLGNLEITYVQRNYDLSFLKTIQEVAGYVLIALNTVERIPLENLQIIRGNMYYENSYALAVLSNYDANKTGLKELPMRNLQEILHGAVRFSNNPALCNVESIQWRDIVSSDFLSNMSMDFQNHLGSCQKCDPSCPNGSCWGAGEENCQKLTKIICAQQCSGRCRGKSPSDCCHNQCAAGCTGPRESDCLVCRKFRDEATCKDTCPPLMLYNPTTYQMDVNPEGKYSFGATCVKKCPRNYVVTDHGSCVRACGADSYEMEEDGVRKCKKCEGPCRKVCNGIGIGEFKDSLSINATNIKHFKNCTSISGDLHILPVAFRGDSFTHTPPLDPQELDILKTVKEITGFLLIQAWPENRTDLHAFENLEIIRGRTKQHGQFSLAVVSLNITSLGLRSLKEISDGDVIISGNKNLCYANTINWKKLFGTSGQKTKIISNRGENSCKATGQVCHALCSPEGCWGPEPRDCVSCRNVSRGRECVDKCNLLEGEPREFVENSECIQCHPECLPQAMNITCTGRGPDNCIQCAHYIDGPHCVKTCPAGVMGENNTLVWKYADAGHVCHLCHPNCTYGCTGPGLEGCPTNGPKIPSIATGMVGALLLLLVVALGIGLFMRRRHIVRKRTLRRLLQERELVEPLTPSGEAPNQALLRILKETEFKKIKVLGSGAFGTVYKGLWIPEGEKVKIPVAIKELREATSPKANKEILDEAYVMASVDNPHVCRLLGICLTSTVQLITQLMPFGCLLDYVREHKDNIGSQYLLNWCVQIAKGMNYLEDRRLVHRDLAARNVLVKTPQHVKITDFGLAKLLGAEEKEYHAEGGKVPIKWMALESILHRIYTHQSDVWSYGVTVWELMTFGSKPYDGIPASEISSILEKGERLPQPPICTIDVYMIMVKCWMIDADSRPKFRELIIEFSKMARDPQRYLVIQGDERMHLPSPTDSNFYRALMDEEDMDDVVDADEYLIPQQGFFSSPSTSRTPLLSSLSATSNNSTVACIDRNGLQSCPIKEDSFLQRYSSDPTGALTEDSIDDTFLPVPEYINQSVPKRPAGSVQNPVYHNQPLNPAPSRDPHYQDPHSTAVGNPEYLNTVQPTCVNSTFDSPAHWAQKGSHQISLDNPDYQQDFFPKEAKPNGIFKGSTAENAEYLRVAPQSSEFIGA
Method: The following protocol describes the reagents and procedures used to analyze protein tyrosine kinase activity on the EGFR protein.
All of the following steps are conducted at room temperature unless it is specifically indicated. All ELISA plate washing is by rinsing 4× with TBST.
1. Coat Corning 96 well ELISA plates with 0.5 μg/well of SUMO1 in a volume of 100 μL PBS. Store overnight at 4° C.
2. Remove unbound SUMO1 by inverting plate to remove liquid. Wash plates with distilled water. Pat plate on a paper towel to remove excess liquid and bubbles
3. Add 150 μL of Blocking Buffer to each well. Incubate while shaking on a microliter plate shaker at room temperature for 30 min.
4. Wash 3× with deionized water, then once with TBST. Pat plate on a paper towel to remove excess liquid and bubbles.
5. Dilute lysate in PBS (7 μg of lysate/100 μL of PBS).
6. Add 100 μL of diluted lysate to each well. Shake at room temperature for 60 min.
7. Wash as described in step 4.
8. Add 120 μL TBS to ELISA plate containing captured EGFR.
9. Dilute drugs/extracts 1:10 (unless specified otherwise) in TBS in 96-well polypropylene plates.
10. Add 13.5 μL diluted drugs/extracts to ELISA plate.
11. Incubate for 30 minutes while shaking at room temperture.
12. […] Incubate while shaking on a micro-liter plate shaker at room temperature for 5 min.
13. Stop Kinase reaction with the addition of 16.5 μL of 200 mM EDTA pH 8.0 to all wells.
14. Wash 4× with deionized water and twice with TBST.
15. Add 100 μL per well of anti-phosphotyrosine (1:3000 dilution in TBST). Incubate while shaking on a micro-liter plate shaker 30-45 minutes at room temperature while shaking.
16. Wash as described in step 4.
17. Add 100 μL per well of biosource Goat anti-rabbit IgG peroxidase conjugate (1:2000 dilution in TBST). Incubate 30 min. at room temerature while shaking.
18. Wash as described in step 4.
19. Add 100 μL of ABTS/H2O2 solution to each well.
20. Incubate 5 to 15 minutes while shaking. Remove any bubbles.
21. If necessary stop reaction with the addition of 10 μL of 0.2 M HCl/well.
22. Read assay on Dynatech MR7000 ELISA Plate Reader.
as §1

| SMILES | IC50 ([1]; Homo sapiens) [nM] | IC50 (EGFR protein) [nM] | further results |
| --- | --- | --- | --- |
| CN(C)CCCc1c(C=C2C(=O)Nc3ccccc32)[nH]c2c1CCCC2 [IN-009, 3-[3-(3-Dimethylamino-propyl)-4,5,6,7-tetrahydro-1H-indol-2-ylmethylene]-1,3-dihydro-indol-2-one] | 1700 | – | – |
| O=C(O)CCc1c(C=C2C(=O)Nc3ccc(Cl)cc32)[nH]c2c1CCCC2 [IN-002, 3-[2-(5-Chloro-2-oxo-1,2-dihydro-indol-3-ylidenemethyl)-4,5.6,7-tetrahydro-1H-indol-3-yl]-propionic acid] | – | – | IC50 (PDGF receptor): 50 nM; IC50 [2]: 370 nM; IC50 [1]: 250 nM |
| Cc1c[nH]c(C=C2C(=O)Nc3ccc(Br)cc32)c1CCC(=O)O [IN-031, 3-[2-(5-Bromo-2-oxo-1,2-dihydro-indol-3-ylidenemethyl)-4-methyl-1H-pyrrol-3-yl]-propionic acid] | – | > 100000 | – |
| Cc1c[nH]c(C=C2C(=O)Nc3cc(Cl)ccc32)c1CCC(=O)O [IN-030, 3-[2-(6-Chloro-2-oxo-1,2-dihydro-indol-3-ylidenemethyl)-4-methyl-1H-pyrrol-3-yl]-propionic acid] | 260 | 98100 | – |
| O=C1Nc2ccccc2C1=Cc1[nH]c2c(c1CCC(=O)N1CCOCC1)CCCC2 [IN-011, 3-[3-(3-Morpholin-4-yl-3-oxo-propyl)-4,5 6,7-tetrahydro-1H-indol-2-ylmethylene]-1,3-dihydro-indol-2-one] | 9200 | – | – |
| Cc1ccc2c(c1)C(=Cc1[nH]c3c(c1CCC(=O)O)CCCC3)C(=O)N2 [IN-005, 3-[2-(5-Methyl-2-oxo-1,2-dihydro-indol-3-ylidenemethyl)-4,5,6,7-tetrahydro-1H-indol-3-yl]-propionic acid] | 4.4 | – | – |
| COc1ccc2c(c1)NC(=O)C2=Cc1[nH]cc(C)c1CCC(=O)O [IN-028, 3-[2-(6-Methoxy-2-oxo-1,2-dihydro-indol-3-ylidenemethyl)-4-methyl-1H-pyrrol-3-yl]-propionic acid] | 4800 | > 100000 | – |
| O=C(O)CCc1c(C=C2C(=O)Nc3ccccc32)[nH]c2c1CCCC2 [IN-001, 3-[2-(2-Oxo-1,2-dihydro-indol-3-ylidenemethyl)-4,5,6,7-tetrahydro-1H-indol-3-yl]-propionic acid] | 15.9 | – | melting point: 263 to 265 °C |
| Cc1c[nH]c(C=C2C(=O)Nc3ccccc32)c1CCC(=O)O [IN-026, 3-[4-Methyl-2-(2-oxo-1,2-dihydro-indol-3-ylidenemethyl)-1H-pyrrol-3-yl]-propionic acid] | 1100 | > 100000 | – |
| O=C(CCc1c(C=C2C(=O)Nc3ccccc32)[nH]c2c1CCCC2)NCCN1CCOCC1 [IN-013, N-(2-Morpholin-4-yl-ethyl)-3-[2-(2-oxo-1,2-dihydro-indol-3-ylidenemethyl)-4,5,6,7-tetrahydro-1H-indol-3-yl]-propionamide] | 2100 | – | melting point: 256 to 258 °C |
| Cc1c[nH]c(C=C2C(=O)Nc3ccc(Cl)cc32)c1CCC(=O)O [IN-027, 3-[2-(5-Chloro-2-oxo-1,2-dihydro-indol-3-ylidenemethyl)-4-methyl-1H-pyrrol-3-yl]-propionic acid] | 1400 | > 100000 | – |
| CNC(=O)CCc1c(C=C2C(=O)Nc3ccccc32)[nH]c2c1CCCC2 [IN-012, N-Methyl-3-[2-(2-oxo-1,2-dihydro-indol-3-ylidenemethyl)-4,5,6,7-tetrahydro-1H-indol-3-yl]-propionamide] | 160 | – | – |
| Cc1cccc2c1C(=Cc1[nH]c3c(c1CCC(=O)O)CCCC3)C(=O)N2 [IN-004, 3-[2-(4-Methyl-2-oxo-1,2-dihydro-indol-3-ylidenemethyl)-4,5,6,7-tetrahydro-1H-indol-3-yl]-propionic acid] | 2.5 | – | – |
| O=C(O)CCc1c(C=C2C(=O)Nc3ccc(Br)cc32)[nH]c2c1CCCC2 [IN-003, 3-[2-(5-Bromo-2-oxo-1,2-dihydro-indol-3-ylidenemethyl)-4,5,6,7-tetrahydro-1H-indol-3-yl]-propionic acid] | 76 | – | – |
| Cc1c[nH]c(C=C2C(=O)Nc3cccc(C)c32)c1CCC(=O)O [IN-029, 3-[2-(4-Methyl-2-oxo-1,2-dihydro-indol-3-ylidenemethyl)-4-methyl-1H-pyrrol-3-yl]-propionic acid] | 350 | > 100000 | – |
| CN(C)C(=O)CCc1c(C=C2C(=O)Nc3ccccc32)[nH]c2c1CCCC2 [IN-008, N,N-Dimethyl-3-[2-(2-oxo-1,2-dihydro-indol-3-ylidenemethyl)-4,5,6,7-tetrahydro-1H-indol-3-yl]-propionamide] | 2200 | – | – |
| NC(=O)CCc1c(C=C2C(=O)Nc3ccccc32)[nH]c2c1CCCC2 [IN-010, 3-[2-(2-Oxo-1,2-dihydro-indol-3-ylidenemethyl)-4,5,6,7-tetrahydro-1H-indol-3-yl]-propionamide] | 100 | – | – |
| COc1ccc2c(c1)NC(=O)C2=Cc1[nH]c2c(c1CCC(=O)O)CCCC2 [IN-007, 3-[2-(6-Methoxy-2-oxo-1,2-dihydro-indol-3-ylidenemethyl)-4,5,6,7-tetrahydro-1H-indol-3-yl]-propionic acid] | 1600 | – | – |
